# Laboratory results taken from patent US5876694A, “Azavesamicols” (priority 1997, dated 1999).
# What was measured:
# [1] = Tissue distribution of radiotracer in rats; format: in vivo, male Wistar rats
# Method: Tissue Distribution Experiments
# Four groups of male Wistar rats (n=4) weighing 200-350 g were used in these experiments. Each animal received, while under ether anesthesia, an intravenous injection of the radiotracer (3-5 uCi) dissolved in 0.1 mL of 50% aqueous ethanol. At 5, 30, 60 and 180 min post-injection, blood was collected from the anesthetized animal by cardiac puncture, and the animal was immediately sacrificed by cardiectomy. The organs and tissues of interest were harvested, transferred to preweighed tubes and counted in a Beckman gamma counter. The tubes were subsequently reweighed to give the weight of the corresponding tissues. Preweighed tubes containing 1 mL samples of a 1:100 dilution of the injected dose were also counted and used as reference for calculating the tissue accumulation of radioactivity. The accumulation of radiotracer was expressed as a percentage of injected dose per gram of tissue.
# The animals were injected intravenously with 4.9 uCi of the radiotracer i
# 0.1 ml of 50% aq. EtOH.
# The animals were injected with 3.7 uCi of the radiotracer in 0.1 ml of 50
# vesamicol receptor = experiment: Ex vivo autoradiography of rat brain; format: in vivo, male Wistar rats; conditions: 3 hrs after iv
# Method: Ex-vivo Autoradiographic Studies
# Two groups of male Wistar rats (n=2) were used in these experiments. Each animal in the first group received an i.v. injection of (+)-[^125 I]12h (385 uCi in 0.1/ml of 50% aq. EtOH). Similarly, animals in the second group received 330 uCi of (-)-[^125 I]12h (in 0.1 ml of 50% aq. EtOH). After 3 hrs, the animals were sacrificed by decapitation. The brains were carefully removed, embedded in Tissue Tek OCT medium and frozen to […] Twenty micron thick coronal brain slices were subsequently obtained by sectioning rostrocaudally with a Reichert HistoSTAT microtome at -15°. The tissue sections were apposed to Kodak NMC film accompanied by ^125 I-labeled external standards (^125 I-Microscales from Amersham). For delineation of cytoarchitecture, adjacent tissue sections were subjected to Nissl staining.
smiles,measurement,setting,value
"OC1CCN(Cc2cccc([125I])c2)CC1N1CCC(c2ccccc2)CC1 (stereo not drawn) [(+)-[^125 I]12h, (+)- and (-)-4-hydroxy-1-(3-[I^125]iodobenzyl)-3-(4-phenyl-piperidinyl)piperidine]",Ratio brain/blood,"[1]; 5 min, iv",2.33
same,Ratio heart/blood,"[1]; 5 min, iv",4.68
same,"Tissue distribution, blood","[1]; 5 min, iv",0.24 % dose/g of tissue
same,"Tissue distribution, brain","[1]; 5 min, iv",0.57 % dose/g of tissue
same,"Tissue distribution, gonads","[1]; 5 min, iv",0.13 % dose/g of tissue
same,"Tissue distribution, heart","[1]; 5 min, iv",1.14 % dose/g of tissue
same,"Tissue distribution, kidney","[1]; 5 min, iv",2.25 % dose/g of tissue
same,"Tissue distribution, liver","[1]; 5 min, iv",1.60 % dose/g of tissue
same,"Tissue distribution, lung","[1]; 5 min, iv",3.67 % dose/g of tissue
same,"Tissue distribution, muscle","[1]; 5 min, iv",0.34 % dose/g of tissue
same,"Tissue distribution, spleen","[1]; 5 min, iv",0.76 % dose/g of tissue
same,"Tissue distribution, thyroid","[1]; 5 min, iv",1.60 % dose/g of tissue
same,"radioactivity in liver, heart, thyroid and spleen (in words)","[1]; 5 min, iv",Moderate to low levels
same,radioactivity in lung and kidney (in words),"[1]; 5 min, iv",high levels of radioactivity
same,radioactivity in brain,"[1]; 5 min post-injection, iv",1.06 % of the injected dose
same,Ratio brain/blood,"[1]; 30 min, iv",3.18
same,Ratio heart/blood,"[1]; 30 min, iv",2.33
same,"Tissue distribution, blood","[1]; 30 min, iv",0.12 % dose/g of tissue
same,"Tissue distribution, brain","[1]; 30 min, iv",0.36 % dose/g of tissue
same,"Tissue distribution, gonads","[1]; 30 min, iv",0.15 % dose/g of tissue
same,"Tissue distribution, heart","[1]; 30 min, iv",0.26 % dose/g of tissue
same,"Tissue distribution, kidney","[1]; 30 min, iv",1.32 % dose/g of tissue
same,"Tissue distribution, liver","[1]; 30 min, iv",2.18 % dose/g of tissue
same,"Tissue distribution, lung","[1]; 30 min, iv",1.21 % dose/g of tissue
same,"Tissue distribution, muscle","[1]; 30 min, iv",0.16 % dose/g of tissue
same,"Tissue distribution, spleen","[1]; 30 min, iv",1.07 % dose/g of tissue
same,"Tissue distribution, thyroid","[1]; 30 min, iv",2.33 % dose/g of tissue
same,Ratio brain/blood,"[1]; 60 min, iv",3.08
same,Ratio heart/blood,"[1]; 60 min, iv",1.70
same,"Tissue distribution, blood","[1]; 60 min, iv",0.09 % dose/g of tissue
same,"Tissue distribution, brain","[1]; 60 min, iv",0.27 % dose/g of tissue
same,"Tissue distribution, gonads","[1]; 60 min, iv",0.17 % dose/g of tissue
same,"Tissue distribution, heart","[1]; 60 min, iv",0.15 % dose/g of tissue
same,"Tissue distribution, kidney","[1]; 60 min, iv",0.87 % dose/g of tissue
same,"Tissue distribution, liver","[1]; 60 min, iv",1.91 % dose/g of tissue
same,"Tissue distribution, lung","[1]; 60 min, iv",0.82 % dose/g of tissue
same,"Tissue distribution, muscle","[1]; 60 min, iv",0.11 % dose/g of tissue
same,"Tissue distribution, spleen","[1]; 60 min, iv",0.86 % dose/g of tissue
same,"Tissue distribution, thyroid","[1]; 60 min, iv",4.59 % dose/g of tissue
same,radioactivity in brain,"[1]; 60 min post-injection, iv",0.51 % of the injected dose
same,Ratio brain/blood,"[1]; 180 min, iv",2.35
same,Ratio heart/blood,"[1]; 180 min, iv",1.60
same,"Tissue distribution, blood","[1]; 180 min, iv",0.07 % dose/g of tissue
same,"Tissue distribution, brain","[1]; 180 min, iv",0.15 % dose/g of tissue
same,"Tissue distribution, gonads","[1]; 180 min, iv",0.16 % dose/g of tissue
same,"Tissue distribution, heart","[1]; 180 min, iv",0.10 % dose/g of tissue
same,"Tissue distribution, kidney","[1]; 180 min, iv",0.50 % dose/g of tissue
same,"Tissue distribution, liver","[1]; 180 min, iv",1.18 % dose/g of tissue
same,"Tissue distribution, lung","[1]; 180 min, iv",0.39 % dose/g of tissue
same,"Tissue distribution, muscle","[1]; 180 min, iv",0.08 % dose/g of tissue
same,"Tissue distribution, spleen","[1]; 180 min, iv",0.44 % dose/g of tissue
same,"Tissue distribution, thyroid","[1]; 180 min, iv",13.13 % dose/g of tissue
same,radioactivity in brain,"[1]; 3 hrs post-injection, iv",0.39 % of the injected dose
same,radioactivity in thyroid (in words),[1]; beginning to 3 hrs post-injection,moderate at the beginning but increased significantly by 3 hrs post-injection
same,"brain regional distribution: cortex, hippocampus and cerebellum",vesamicol receptor,Moderate levels of activity
same,"brain regional distribution: interpeduncular nucleus, olfactory tubercle, nucleus accumbens, amygdala, caudate-putamen, nuclei of fifth and seventh cranial nerves",vesamicol receptor,high levels of radioactivity
